# Assay results taken from patent publication US4983328A, “N-(4-(3-aminopropyl)aminobutyl)-2-(ω-gua nidino-fatty-acid-amido(-2-substituted-ethanamide, salt thereof, and process for preparation thereof” (Bristol-Myers Company, priority 1981, dated 1991).
# Legend:
# [1] = acute toxicity in mice (single intraperitoneal administration); settings: mouse, in vivo, ip; mice, single i.p.; read-out: LD50 (median lethal dose on single administration)
# Description: (§1) In Table 8 median lethal doses (LD50) of typical compounds of this invention are shown, measured in mice upon single intraperitoneal administration, as well as maximum tolerated doses in terms of total dose when a fixed amount per unit body weight was administered intraperitoneally to mice once a day for 6 consecutive days.
# *Median lethal dose on single administration.
# [2] = test system: mouse leukemia L-1210; test: therapeutic effect on implanted cancer in mice (L-1210, survival over 30 days); assay type: in vivo, mouse (BDF1); settings: L1210, ip, 720 h, 6 days; for responders at 3.13 mg/kg / response vs control in vivo at 3.13 mg/kg: 3.13 mg/kg/day i.p.; for responders at 3.13 mg/kg / responders at 6.25 mg/kg / responders at 12.5 mg/kg / responders at 25 mg/kg / responders at 1.56 mg/kg / responders at 50 mg/kg / responders at 0.2 mg/kg / responders at 0.39 mg/kg / responders at 0.78 mg/kg: read-out: Number of mice survived for 30 days (converted); for response vs control in vivo at 3.13 mg/kg / response vs control in vivo at 6.25 mg/kg / response vs control in vivo at 12.5 mg/kg / response vs control in vivo at 25 mg/kg / response vs control in vivo at 1.56 mg/kg / response vs control in vivo at 50 mg/kg / response vs control in vivo at 0.2 mg/kg / response vs control in vivo at 0.39 mg/kg / response vs control in vivo at 0.78 mg/kg: read-out: Prolongation of survival period (%), T/C × 100; for responders at 6.25 mg/kg / response vs control in vivo at 6.25 mg/kg: 6.25 mg/kg/day i.p.; for responders at 12.5 mg/kg / response vs control in vivo at 12.5 mg/kg: 12.5 mg/kg/day i.p.; for responders at 25 mg/kg / response vs control in vivo at 25 mg/kg: 25 mg/kg/day i.p.; for responders at 1.56 mg/kg / response vs control in vivo at 1.56 mg/kg: 1.56 mg/kg/day i.p.; for responders at 50 mg/kg / response vs control in vivo at 50 mg/kg: 50 mg/kg/day i.p.; for responders at 0.2 mg/kg / response vs control in vivo at 0.2 mg/kg: 0.20 mg/kg/day i.p.; for responders at 0.39 mg/kg / response vs control in vivo at 0.39 mg/kg: 0.39 mg/kg/day i.p.; for responders at 0.78 mg/kg / response vs control in vivo at 0.78 mg/kg: 0.78 mg/kg/day i.p.
# From the text: BDF1 strain male mice (5 weeks old) were each inoculated intraperitoneally with 10^5 mouse leukemia L-1210 cells and treated once a day by intraperitoneal injection with a test compound dissolved in physiological saline for 6 consecutive days beginning from the day of inoculation. The mice were then observed for 30 days to determine the rate of prolongation of survival period=100×T/C=100×(average survival days of treated group)/(average survival days of control group).
# [3] = cumulative toxicity in mice (maximum tolerated dose, once a day for 6 consecutive days); settings: mouse, in vivo, ip, i.p. once a day for 6 consecutive days, total dose, read-out: Maximum Tolerated Dose (total dose not causing death)
# Description: as §1
# **Maximum value of the total dose not causing death when a fixed amount
# per unit body weight is administered to mice once a day for 6 consecutive
# [4] = test system: mouse leukemia L-1210 cells; test: growth inhibitory activity to cancer cells in vitro (L-1210, 48 hours); assay type: cell-based; settings: for inhibition at 2.5 µg/mL: L1210, 2.5 mcg/ml; for inhibition at 2.5 µg/mL / inhibition at 5 µg/mL / inhibition at 10 µg/mL / inhibition at 20 µg/mL / inhibition at 40 µg/mL / inhibition at 1.25 µg/mL / inhibition at 80 µg/mL: read-out: Growth inhibition (%), (1-T/C) × 100; for inhibition at 5 µg/mL: L1210, 5 mcg/ml; for inhibition at 10 µg/mL: L1210, 10 mcg/ml; for inhibition at 20 µg/mL: L1210, 20 mcg/ml; for inhibition at 40 µg/mL: L1210, 40 mcg/ml; for IC50: L1210, L-1210 cells, read-out: 50% inhibitory concentration; for inhibition at 1.25 µg/mL: L1210, 1.25 mcg/ml; for inhibition at 80 µg/mL: L1210, 80 mcg/ml
# Description: DBA/2 mice were implanted with 10^5 mouse leukemia L-1210 cells. The ascites collected asceptically from the mice after 4 days of feeding was washed three times with physiological saline to obtain L-1210 cells, which was then suspended in RPMI 1640 culture medium [G. E. Moore, Journal of the American Medical Association, Vol. 199, 519 (1967); H. J. Morton, In Vitro, Vol. 6, 89 (1970)] to which 10% fetal calf serum and 5 μM 2-mercaptoethanol had been added, and the resulting suspension was diluted to 5×10^4 L-1210 cells per 0.9 ml. A microplate carrying 0.9 ml of the cell suspension and 0.1 ml of the culture medium containing the sample being tested was kept in a carbon dioxide incubator at 37° C. After 48 hours of cultivation, the number of cells was measured by means of a Coulter Counter (Coulter Electronics, Inc., U.S.A.) to obtain the growth inhibition (%)=(1--T/C )×100=[1-(number of grown cells in medium containing sample/(number of grown cells in control medium)]×100. The 50% growth inhibitory concentration was calculated from the values of growth inhibition at varied sample concentrations. The results of tests on typical compounds of this invention for the growth inhibition of L-1210 cells were as shown in Table 6.
Structure (SMILES),LD50 [1] [mg/kg],responders at 3.13 mg/kg [2] [%],response vs control in vivo at 3.13 mg/kg [2] [%],responders at 6.25 mg/kg [2] [%],response vs control in vivo at 6.25 mg/kg [2] [%],responders at 12.5 mg/kg [2] [%],response vs control in vivo at 12.5 mg/kg [2] [%],responders at 25 mg/kg [2] [%],response vs control in vivo at 25 mg/kg [2] [%],MTD [3] [mg/kg],inhibition at 2.5 µg/mL [4] [%],inhibition at 5 µg/mL [4] [%],inhibition at 10 µg/mL [4] [%],inhibition at 20 µg/mL [4] [%],inhibition at 40 µg/mL [4] [%],IC50 [4] [µg/mL],responders at 1.56 mg/kg [2] [%],response vs control in vivo at 1.56 mg/kg [2] [%],responders at 50 mg/kg [2] [%],response vs control in vivo at 50 mg/kg [2] [%],further results
"CCOC(NC(=O)C[C@@H](O)CCCCNC(=N)N)C(=O)NCCCCNCCCN (some centres unmarked) [Compound 23, N-[4-(3-aminopropyl)aminobutyl]-2-(7-guanidino-3-hydroxyheptanamido)-2-ethoxyethanamide]",> 25,0,104,0,119,0,129,0,200,> 150,58.5,85.5,93,96.1,96.4,2.2,–,–,–,–,–
"COC(NC(=O)C[C@@H](O)CCCCNC(=N)N)C(=O)NCCCCNCCCN (some centres unmarked) [Compound 22, N-[4-(3-aminopropyl)aminobutyl]-2-(7-guanidino-3-hydroxyheptanamido)-2-methoxyethanamide]",25 to 50,0,163,50,> 332,62.5,> 380,75,> 414,> 150,60.8,82.6,94.5,96.9,98.3,1.8,0,117,0,7,–
"N=C(N)NCCCCCCC(O)CC(=O)NC(O)C(=O)NCCCCNCCCN (centres unmarked) [Compound 21, N-[4-(3-aminopropyl)aminobutyl]-2-(9-guanidino-3-hydroxynonanamido)-2-hydroxyethanamide]",25 to 50,0,129,0,164,0,200,0,229,> 150,21.5,29.7,37.5,51.6,84,18,0,114,0,0,responders at 0.2 mg/kg [2]: 0%; response vs control in vivo at 0.2 mg/kg [2]: 100%; responders at 0.39 mg/kg [2]: 0%; response vs control in vivo at 0.39 mg/kg [2]: 100%; responders at 0.78 mg/kg [2]: 0%; response vs control in vivo at 0.78 mg/kg [2]: 100%; inhibition at 1.25 µg/mL [4]: 14.6%; inhibition at 80 µg/mL [4]: 94.5%
"N=C(N)NCCCCC=CC(=O)NC(O)C(=O)NCCCCNCCCN (centres unmarked) [Compound 16, N-[4-(3-aminopropyl)aminobutyl]-2-(7-guanidino-2-heptenamido)-2-hydroxyethanamide]",25 to 50,50,> 343,50,> 350,50,> 354,0,236,> 150,22.6,31.1,32.5,56.3,–,17,0,233,0,0,responders at 0.78 mg/kg [2]: 0%; response vs control in vivo at 0.78 mg/kg [2]: 129%
"N=C(N)NCCCCCCC(=O)NC(O)C(=O)NCCCCNCCCN (centres unmarked) [Compound 4, N-[4-(3-aminopropyl)aminobutyl]-2-(7-guanidinoheptanamido)-2-hydroxyethanamide]",25 to 50,50,> 364,25,> 369,50,> 357,0,336,> 150,27.5,29.9,58.4,75.5,78.7,8.1,100,> 429,0,0,responders at 0.2 mg/kg [2]: 0%; response vs control in vivo at 0.2 mg/kg [2]: 197%; responders at 0.39 mg/kg [2]: 75%; response vs control in vivo at 0.39 mg/kg [2]: > 390%; responders at 0.78 mg/kg [2]: 100%; response vs control in vivo at 0.78 mg/kg [2]: > 429%; inhibition at 1.25 µg/mL [4]: 20%
"N=C(N)NCCCC(=O)NC(O)C(=O)NCCCCNCCCN (centres unmarked) [Compound 1, N-[4-(3-aminopropyl)aminobutyl]-2-(4-guanidinobutanamido)-2-hydroxyethanamide]",> 50,–,–,–,–,–,–,–,–,> 300,52.2,89.3,101,100,–,2.4,–,–,–,–,–
"N=C(N)NCCCCCC=CC(=O)NC(O)C(=O)NCCCCNCCCN (centres unmarked) [Compound 17, N-[4-(3-aminopropyl)aminobutyl]-2-(8-guanidino-2-octenamido)-2-hydroxyethanamide]",12.5 to 25,–,–,–,–,–,–,–,–,> 75,4.5,13.3,16.5,33.7,52.5,70,–,–,–,–,inhibition at 1.25 µg/mL [4]: 2.1%
"CCOC(NC(=O)CCCCCCNC(=N)N)C(=O)NCCCCNCCCN (centres unmarked) [Compound 12, N-[4-(3-aminopropyl)aminobutyl]-2-(7-guanidinoheptanamido)-2-ethoxyethanamide]",12.5 to 25,–,–,–,–,–,–,–,–,> 75,21.5,31.1,38.4,47.3,58.6,21,–,–,–,–,inhibition at 80 µg/mL [4]: 73.5%
